Laboratory results from patent publication US8129184B2, “Cancer stem cell antigen vaccines and methods” (Cedars-Sinai Medical Center, priority 2006, dated 2012).
Entries after “also recorded” stand apart in the source; their conditions may differ.

Experiments:
[1] = system: CD133 positive cells isolated from No. 66; test: WST-1 Cell Proliferation Assay, drug sensitivity of CD133 positive vs CD133 negative cells, No. 66; assay type: cell-based, human; conditions: No. 66, 48 hours, 10% FBS/F-12/DMEM
Method: FIGS. 10A-10D are line graphs depicting drug sensitivity of CD133 positive cancer stem cells derived from patient No. 66. Tumor cells of No. 66 were cultured in FBS/F-12/DMEM medium for 4 passages. Both CD133 positive and negative tumor cells were collected by FACS sorting. 1×10^4 cells/well were plated in 96-well plate and treated with the indicated concentrations of VP-16, Taxol, temozolomide, and carboplatin for 48 hours in FBS/F-12/DMEM medium. * indicates p<0.05 compared to autologous CD133 negative cells. Data are representative of two independent experiments. (10A) VP16; (10B) Taxol; (10C) temozolomide; (10D) carboplatin.
(§1) To determine whether CD133 positive cancer stem cells were resistant to chemotherapeutic agents, the WST-1 Cell Proliferation Assay was used to examine the drug sensitivity of CD133 positive cells and CD133 negative cells (both collected by FACS sorting from the three glioblastoma patients' primary cultured tumor cells as described above). CD133 positive and negative cells were exposed to conventional chemotherapeutic agents, temozolomide, carboplatin, VP-16 or taxol at various concentrations, for up to 48 hours in 10% FBS/F-12/DMEM culture medium. Temozolomide was supplied by the Schering-Plough Research Institute (Kenilworth, N.J.) and was dissolved in DMSO (Sigma Chemical Co., St Louis, Mo.) at 100 mM stock solution. Carboplatin, etoposide (VP-16) and paclitaxel (Taxol) were obtained from Sigma-Aldrich (St. Louis, Mo.).

[2] = system: CD133 positive cells isolated from No. 377; test: WST-1 Cell Proliferation Assay, drug sensitivity of CD133 positive vs CD133 negative cells, No. 377; assay type: cell-based, human; conditions: 48 hours
Method: (§2) FIGS. 11A-11C are a set of line graphs depicting drug sensitivity of CD133 positive cancer stem cells derived from patient Nos. 377 and 1049. Tumor cells of patient No. 377 and No. 1049 were cultured in FBS/F-12/DMEM medium for 3 passages. Both CD133 positive and negative tumor cells were collected by FACS sorting. 1×10^4 cells/well were plated in 96-well plate and treated with the indicated concentrations of carboplatin (11A and 11C) or VP-16 (11B) for 48 hours in FBS/F-12/DMAEM medium. * indicates p<0.05 compared to autologous CD133 negative cells. Data are representative of two independent experiments.
as §1, with “Carboplatin, etoposide (VP-16) and paclitaxel (Taxol) were obtained from Sigma-Aldrich (St. Louis, Mo.).” left out

[3] = system: 9L sphere and monolayer cells; test: WST-1 viability of 9L neurospheres and monolayer cells exposed to chemotherapeutic agents; assay type: cell-based, rat; conditions: 125-1,000 μM, 2 days
Method: To compare the differential proliferation rates and resistance to chemotherapeutic agents, 2,000 healthy 9L sphere and monolayer cells were exposed to either Dulbecco's modified Eagle's medium/F-12 medium containing 10% fetal bovine serum (FBS), or […] stock solution of Temozolamide or Carboplatin dissolved in PBS at concentrations of 1,000 μM, 500 μM, 250 μM, and 125 μM for 2 days. The viability of the cells was scored by measurement of the absorption of formazan dye (the amount of formazan dye formed directly correlates to the number of metabolically active cells) using the cellular proliferation assay WST-1 (Roche Molecular Biochemicals, Mannheim, Germany). Formazan was measured with the use of a microplate reader (Tecan) and spectrophotometer set at a wavelength of 440 nm and a reference wavelength of 890 nm. Cellular viability was determined by exposing cells to WST-1 for 4 hours, and calculating the percentage of viable cells. Proliferation was also assessed by using manual cell counting after 7 days in culture, with an initial cellular concentration of 100,000 cells/mL in a […] flask.

[4] = system: CD133 positive cells isolated from No. 1049; test: WST-1 Cell Proliferation Assay, drug sensitivity of CD133 positive vs CD133 negative cells, No. 1049; assay type: cell-based, human; conditions: No. 1049, at 200 μM, 48 hours
Method: as §2
as §1, with “Carboplatin, etoposide (VP-16) and paclitaxel (Taxol) were obtained from Sigma-Aldrich (St. Louis, Mo.).” left out

CC(=O)O[C@H]1C(=O)[C@@]2(C)[C@H]([C@H](OC(=O)c3ccccc3)[C@]3(O)C[C@H](OC(=O)[C@H](O)[C@@H](NC(=O)c4ccccc4)c4ccccc4)C(C)=C1C3(C)C)[C@]1(OC(C)=O)CO[C@@H]1C[C@@H]2O [Taxol, paclitaxel]
drug resistance of CD133 positive cells compared to autologous CD133 negative cells [1]: dramatic drug resistance

COc1cc([C@@H]2c3cc4c(cc3[C@@H](O[C@@H]3O[C@@H]5CO[C@@H](C)O[C@H]5[C@H](O)[C@H]3O)[C@H]3COC(=O)[C@H]23)OCO4)cc(OC)c1O [VP-16, etoposide]
drug resistance of CD133 positive cells compared to autologous CD133 negative cells [1]: dramatic drug resistance | resistance of CD133 positive cells compared to autologous CD133 negative cells ([2]; No. 377, at 200 μM): significant resistance

N.N.O=C([O-])C1(C(=O)[O-])CCC1.[Pt+2] [carboplatin]
drug resistance of CD133 positive cells compared to autologous CD133 negative cells [1]: dramatic drug resistance | resistance of neurospheres to the agent compared to monolayer cells [3]: significantly (P<0.05) greater resistance; also recorded: significantly more resistant | resistance of CD133 positive cells compared to autologous CD133 negative cells [4]: significant resistance | resistance of CD133 positive cells compared to autologous CD133 negative cells ([2]; No. 377, all concentrations tested): significant resistance
